One block for each molecule: values may come before it.
What was measured:
cytochrome b5 [1] = conditions: read-out: affinity of binding to cytochrome b5; cited from earlier work
cytochrome b5 [2] = target: cytochrome b5 (Rattus norvegicus, UniProt P00173); assay: HSQC perturbation mapping: concentration dependence of hexacyclen-induced heteronuclear correlation peak shifts; type: binding; conditions: 1H-15N HSQC peak shifts, hexacyclen 0.5 to 8 mM, pH 7.0, 1 mM phosphate buffer, 40° C; read-out: dissociation constant
Experimental: Hexacyclen (1,4,7,10,13,16-hexaazacyclooctadecane)(Richman, J. E.; Atkins, T. J. 1974, J. Am. Chem. Soc., 96, 2268-2269) binds to cytochrome b5 such the HSQC spectra of cytochrome b5-hexacyclen is similar to the HSQC spectra of cytochrome b5-hemoglobin. The concentration dependence of hexacyclen-induced heteronuclear correlation peak shifts indicates a dissociation constant of roughly 2 mM. FIG. 2 illustrates the heteronuclear correlation spectra (HSQC spectra) of a 2 mM solution of cytochrome b5 by itself (black contours) and that of a solution containing 2 mM cytochrome b5 and 4 mM hexacyclen (gray contours). The inset in the upper left hand corner of the figure contains a plot of the hexacyclen dependence of the shifts in the peak to peak separation of aspartate 60 (D60) at concentrations of hexacylen ranging from 0.5 to 8 mM. The inset at the upper right is a model for the interaction of hexacyclen based on the shifts observed in the HSQC perturbation study. Solutions were buffered to a pH of 7.0 with 1 mM phosphate buffer and the spectra were recorded at 40° C. […]
The binding of the R1 and R3 moieties to cytochrome b5 is characterized using HSQC perturbation mapping experiments. […] Solutions were buffered to a pH of 7.0 with 1 mM phosphate buffer and the spectra were recorded at 40° C. […]

sickle cell patients = conditions: nearly 300 sickle cell patients; cited from earlier work

Sequence of cytochrome b5 (Rattus norvegicus, UniProt P00173) (P00173 whole entry): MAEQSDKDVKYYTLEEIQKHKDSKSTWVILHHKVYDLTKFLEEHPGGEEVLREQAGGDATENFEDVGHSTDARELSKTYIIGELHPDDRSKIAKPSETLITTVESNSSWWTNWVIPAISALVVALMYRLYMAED

Structure (SMILES): Nc1ncnc2c1ncn2[C@H]1O[C@@H](COP(=O)(O)OP(=O)(O)OP(=O)(O)O)C(O)C1O (stereo partly drawn) [ATP, Adenosine 5′-triphosphate]
Kd (cytochrome b5 [1]): 0.18 mM

Kd (cytochrome b5 [2]): ~2 mM
Structure (SMILES): C1CNCCNCCNCCNCCNCCN1 [Hexacyclen, 1,4,7,10,13,16-hexaazacyclooctadecane]

Structure (SMILES): NC(=O)NO [hydroxyurea]
occurrence of vaso-occlusive crises, reduced to % of that observed (sickle cell patients): roughly 50%
